Experimental data published in patent US5977063A, “Alkylated hexapeptides” (Eli Lilly and Company, priority 1998, dated 1999).

Assays:
Type in all cases: cell-based
[1] = tested on: Staphylococcus aureus 447; experiment: MIC, standard broth micro-dilution assay, SA 447; set-up: unit not given here
Procedure: (§1) The antibacterial efficacy of the present compounds is illustrated by Table II. The minimal inhibitory concentrations (MICs) were determined using a standard broth micro-dilution assay.

[2] = tested on: Staphylococcus haemolyticus 415; experiment: MIC, standard broth micro-dilution assay, SH 415; set-up: unit not given here
Procedure: as §1

[3] = tested on: Streptococcus pyogenes C203; experiment: MIC, standard broth micro-dilution assay, SPY C203; set-up: unit not given here
Procedure: as §1

[4] = tested on: Staphylococcus haemolyticus 105; experiment: MIC, standard broth micro-dilution assay, SH 105; set-up: unit not given here
Procedure: as §1

[5] = tested on: Enterococcus faecium and faecalis (SENSITIVE); experiment: MIC, standard broth micro-dilution assay, SENSITIVE enterococci; set-up: unit not given here; details: geometric mean of 4-6 isolates
Procedure: as §1

[6] = tested on: Streptococcus pneumoniae P1; experiment: MIC, standard broth micro-dilution assay, SPN P1; set-up: unit not given here
Procedure: as §1

[7] = tested on: Enterococcus faecium and faecalis (RESISTANT); details: geometric mean of 4-6 isolates
Procedure: as §1

[8] = tested on: Staphylococcus epidermidis 270; experiment: MIC, standard broth micro-dilution assay, SE 270; set-up: unit not given here
Procedure: as §1

[9] = tested on: Staphylococcus aureus 446; experiment: MIC, standard broth micro-dilution assay, SA 446; set-up: unit not given here
Procedure: as §1

[10] = tested on: Staphylococcus aureus 489; experiment: MIC, standard broth micro-dilution assay, SA 489; set-up: unit not given here
Procedure: as §1

Row | Compound | Minimal Inhibitory Concentration (MIC) SA 447 [1] | Minimal Inhibitory Concentration (MIC) SH 415 [2] | Minimal Inhibitory Concentration (MIC) SPY C203 [3] | Minimal Inhibitory Concentration (MIC) SH 105 [4] | Minimal Inhibitory Concentration (MIC) SENSITIVE [5] | Minimal Inhibitory Concentration (MIC) SPN P1 [6] | Minimal Inhibitory Concentration (MIC) RESISTANT [7] | Minimal Inhibitory Concentration (MIC) SE 270 [8] | Minimal Inhibitory Concentration (MIC) SA 446 [9] | Minimal Inhibitory Concentration (MIC) SA 489 [10]
1 | C[C@@H]1O[C@@H](O[C@@H]2c3ccc(c(Cl)c3)Oc3cc4cc(c3O[C@@H]3O[C@H](CO)[C@@H](O)[C@H](O)[C@H]3O[C@H]3C[C@](C)(NCc5ccc(-c6ccccc6)cc5)[C@@H](O)[C@H](C)O3)Oc3ccc(cc3Cl)[C@@H](O)[C@@H](NCCCCCCc3ccccc3)C(=O)N[C@@H](CC(N)=O)C(=O)N[C@H]4C(=O)N[C@H]3C(=O)N[C@@H]2C(=O)N[C@H](C(=O)O)c2cc(O)cc(O)c2-c2cc3ccc2O)C[C@](C)(N)[C@H]1O [Example 20, N^1 -(6-PHENYL-n-HEXYL)-N^DISACC -(p-PHENYLBENZYL)-DESLEUCYL-A82846B] | 4 | 1 | ≤ .06 | 1 | 11 | ≤ .06 | 64 | 1 | 4 | 4
2 | C[C@@H]1O[C@@H](O[C@@H]2c3ccc(c(Cl)c3)Oc3cc4cc(c3O[C@@H]3O[C@H](CO)[C@@H](O)[C@H](O)[C@H]3O[C@H]3C[C@](C)(NCCCCCCCCCCc5ccccc5)[C@@H](O)[C@H](C)O3)Oc3ccc(cc3Cl)[C@@H](O)[C@@H](NCCCCCCCCCCc3ccccc3)C(=O)N[C@@H](CC(N)=O)C(=O)N[C@H]4C(=O)N[C@H]3C(=O)N[C@@H]2C(=O)N[C@H](C(=O)O)c2cc(O)cc(O)c2-c2cc3ccc2O)C[C@](C)(N)[C@H]1O [Example 16, N^1,N^DISACC -BIS(10 PHENYL-n-DECYL)-DESLEUCYL-A82846B] | > 64 | > 64 | 8 | > 64 | > 11 | 16 | > 128 | > 64 | > 64 | 64
3 | C[C@@H]1O[C@@H](O[C@@H]2c3ccc(c(Cl)c3)Oc3cc4cc(c3O[C@@H]3O[C@H](CO)[C@@H](O)[C@H](O)[C@H]3O[C@H]3C[C@](C)(NCc5ccc(O)cc5)[C@@H](O)[C@H](C)O3)Oc3ccc(cc3Cl)[C@@H](O)[C@@H](NCc3ccc(O)cc3)C(=O)N[C@@H](CC(N)=O)C(=O)N[C@H]4C(=O)N[C@H]3C(=O)N[C@@H]2C(=O)N[C@H](C(=O)O)c2cc(O)cc(O)c2-c2cc3ccc2O)C[C@](C)(N)[C@H]1O [Example 9, N^1,N^DISACC -BIS(p-HYDROXYBENZYL)-DESLEUCYL-A82846B] | 16 | 32 | 16 | 32 | > 128 | 32 | > 128 | 32 | 16 | 16
4 | CCCCCCN[C@H]1C(=O)N[C@@H](CC(N)=O)C(=O)N[C@H]2C(=O)N[C@H]3C(=O)N[C@H](C(=O)N[C@H](C(=O)O)c4cc(O)cc(O)c4-c4cc3ccc4O)[C@H](O[C@H]3C[C@](C)(N)[C@@H](O)[C@H](C)O3)c3ccc(c(Cl)c3)Oc3cc2cc(c3O[C@@H]2O[C@H](CO)[C@@H](O)[C@H](O)[C@H]2O[C@H]2C[C@](C)(NCCCCCC)[C@@H](O)[C@H](C)O2)Oc2ccc(cc2Cl)[C@H]1O [Example 7, N^1,N^DISACC -DIHEXYLDESLEUCYL-A82846B] | 8 | 8 | 8 | 4 | 111 | 8 | > 128 | 16 | 16 | 8
